pIC50: −log10 of the molar value. Where two headings read alike, the source gives them in different places.
Tests used:
[1] = tested on: human lung cancer strain NCI-H441; type: cell-based
In short: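 Proliferation was scored by […] measured after the reagent was added to cultures kept at 37°C in 5% carbon dioxide.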

HRAS wild-type protein = HRAS wild-type protein (Homo sapiens, UniProt P01112); assay: Binding to HRAS by surface plasmon resonance (SPR), KD and KD ratio to KRAS; conditions: ratio of KD for HRAS wild-type protein to KD for KRAS
In short: (§1)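 SPR, 30°C: Avi-biotin RAS·GDP captured via Biotin CAPture (~100–300 RU); running buffer HBS pH 7.4, 1 mM DTT, 10 mM MgCl2, 0.01% Tween 20, 10 µM GDP, 4% DMSO. Single-cycle kinetics, 100 µL/min, 75 s injections; 1:1 model → KD.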

[2] = target: GDP-bound NRAS wild-type protein (Homo sapiens, UniProt P01111); assay: Binding to NRAS by surface plasmon resonance (SPR), KD and KD ratio to KRAS; conditions: ratio of KD for GDP-bound NRAS wild-type protein to KD for KRAS
In short: as §1

[3] = NCI-H441 cells, 4 days, CellTiter-Glo, read-out: NCl-H441 IC50

Sequence of HRAS wild-type protein (P01112 whole entry): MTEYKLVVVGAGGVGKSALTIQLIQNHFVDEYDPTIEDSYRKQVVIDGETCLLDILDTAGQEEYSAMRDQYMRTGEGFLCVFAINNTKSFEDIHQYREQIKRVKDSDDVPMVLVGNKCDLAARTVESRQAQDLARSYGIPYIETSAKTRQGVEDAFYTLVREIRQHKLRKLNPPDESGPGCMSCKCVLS
Sequence of GDP-bound NRAS wild-type protein (P01111 whole entry): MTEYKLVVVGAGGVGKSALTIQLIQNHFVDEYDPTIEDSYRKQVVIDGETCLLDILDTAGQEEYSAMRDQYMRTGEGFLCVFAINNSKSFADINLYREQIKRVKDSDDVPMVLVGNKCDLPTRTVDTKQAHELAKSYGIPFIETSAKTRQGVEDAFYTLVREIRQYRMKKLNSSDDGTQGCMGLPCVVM

Compound | pIC50 [1] | HRAS /KRAS (HRAS wild-type protein) | NRAS /KRAS [2] | pIC50 [1, 3]
CCO[C@@H]1C[C@H]2C(=O)NC3(CCC3)C(=O)N(C)[C@@H](C3CCCC3)C(=O)N(C)[C@H](C(=O)N(C)C)CC(=O)N(C)[C@@H](CC3CCCC3)C(=O)N[C@@H]([C@@H](C)CC)C(=O)N(C)CC(=O)N(C)[C@H]3C/C=C\CCN(C3=O)[C@@H](Cc3ccc(C)cc3)C(=O)N(C)CC(=O)N[C@@H](CCc3cc(C)c(C(F)F)c(C)c3)C(=O)N2C1 [PP2675] | 6.86 | A (a compound having 10 or more and less than 20 is denoted as A) | A (a compound having 10 or more and less than 20 is denoted as A) | 
CCO[C@@H]1C[C@H]2C(=O)NC3(CCC3)C(=O)N(C)[C@@H](C3CCCC3)C(=O)N(C)[C@H](C(=O)N(C)C)CC(=O)N(C)[C@@H](CC3CCCC3)C(=O)N[C@@H]([C@@H](C)CC)C(=O)N(C)CC(=O)N(C)[C@H]3C/C=C\CCN(C3=O)[C@@H](Cc3ccc(C)cc3)C(=O)N(C)CC(=O)N[C@@H](CCc3cc(C)c(C(F)F)c(F)c3)C(=O)N2C1 [PP2676] | 7.22 | A (a compound having 10 or more and less than 20 is denoted as A) | A (a compound having 10 or more and less than 20 is denoted as A) | 
CCO[C@@H]1C[C@H]2C(=O)NC3(CCC3)C(=O)N(C)[C@@H](C3CCCC3)C(=O)N(C)[C@H](C(=O)N(C)C)CC(=O)N(C)[C@@H](CC3CCCC3)C(=O)N[C@@H]([C@@H](C)CC)C(=O)N(C)CC(=O)N(C)[C@H]3C/C=C\CCN(C3=O)[C@@H](Cc3ccc(C)cc3)C(=O)N(C)CC(=O)N[C@@H](CCc3cc(C)c(C(F)F)c(Cl)c3)C(=O)N2C1 [PP2677] | 7.15 | A (a compound having 10 or more and less than 20 is denoted as A) | A (a compound having 10 or more and less than 20 is denoted as A) | 
CCO[C@@H]1C[C@H]2C(=O)NC3(CCC3)C(=O)N(C)[C@@H](C3CCCC3)C(=O)N(C)[C@H](C(=O)N(C)C)CC(=O)N(C)[C@@H](CC3CCCC3)C(=O)N[C@@H]([C@@H](C)CC)C(=O)N(C)CC(=O)N(C)[C@H]3C/C=C\CCN(C3=O)[C@@H](Cc3ccc(C)cc3)C(=O)N(C)CC(=O)N[C@@H](CCc3cc(Cl)c(C(F)(F)F)c(Cl)c3)C(=O)N2C1 [PP2679] | 7.75 | A (a compound having 10 or more and less than 20 is denoted as A) | A (a compound having 10 or more and less than 20 is denoted as A) | 
CCO[C@@H]1C[C@H]2C(=O)NC3(CCC3)C(=O)N(C)[C@@H](C3CCCC3)C(=O)N(C)[C@H](C(=O)N(C)C)CC(=O)N(C)[C@@H](CC3CCCC3)C(=O)N[C@@H]([C@@H](C)CC)C(=O)N(C)CC(=O)N(C)[C@H]3C/C=C\CCN(C3=O)[C@@H](Cc3ccc(C)cc3)C(=O)N(C)CC(=O)N[C@@H](CCc3ccc(C4CC4)c(F)c3)C(=O)N2C1 [PP2683] | 7.20 | A (a compound having 10 or more and less than 20 is denoted as A) | A (a compound having 10 or more and less than 20 is denoted as A) | 
CCO[C@@H]1C[C@H]2C(=O)NC3(CCC3)C(=O)N(C)[C@@H](C3CCCC3)C(=O)N(C)[C@H](C(=O)N(C)C)CC(=O)N(C)[C@@H](CC3CCCC3)C(=O)N[C@@H]([C@@H](C)CC)C(=O)N(C)CC(=O)N(C)[C@H]3C/C=C\CCN(C3=O)[C@@H](Cc3ccc(C)cc3)C(=O)N(C)CC(=O)N[C@@H](CCc3ccc(C4CC4)c(C)c3)C(=O)N2C1 [PP2685] | 6.87 | A (a compound having 10 or more and less than 20 is denoted as A) | A (a compound having 10 or more and less than 20 is denoted as A) | 
CCO[C@@H]1C[C@H]2C(=O)NC3(CC(C)(C)C3)C(=O)N(C)[C@@H](C3CCCC3)C(=O)N(C)[C@H](C(=O)N(C)C)CC(=O)N(C)[C@@H](CC(C)C)C(=O)N[C@@H]([C@@H](C)CC)C(=O)N(C)CC(=O)N(C)[C@H]3C/C=C\CCN(C3=O)[C@@H](Cc3ccc(C)cc3F)C(=O)N(C)CC(=O)N[C@@H](CCc3ccc(C(F)(F)F)c(OC)c3)C(=O)N2C1 [PP2688] | 8.16 | B (a compound having 3 or more and less than 10 is denoted as B) | A (a compound having 10 or more and less than 20 is denoted as A) | 
CCO[C@@H]1C[C@H]2C(=O)NC3(CC(C)(C)C3)C(=O)N(C)[C@@H](C3CCCC3)C(=O)N(C)[C@H](C(=O)N(C)C)CC(=O)N(C)[C@@H](CC(C)C)C(=O)N[C@@H]([C@@H](C)CC)C(=O)N(C)CC(=O)N(C)[C@H]3C/C=C\CCN(C3=O)[C@@H](Cc3ccc(C)c(F)c3)C(=O)N(C)CC(=O)N[C@@H](CCc3ccc(C(F)(F)F)c(OC)c3)C(=O)N2C1 [PP2689] |  | B (a compound having 3 or more and less than 10 is denoted as B) | A (a compound having 10 or more and less than 20 is denoted as A) | 8.21
CCO[C@@H]1C[C@H]2C(=O)NC3(CC(C)(C)C3)C(=O)N(C)[C@@H](C3CCCC3)C(=O)N(C)[C@H](C(=O)N(C)C)CC(=O)N(C)[C@@H](CC(C)C)C(=O)N[C@@H]([C@@H](C)CC)C(=O)N(C)CC(=O)N(C)[C@H]3C/C=C\CCN(C3=O)[C@@H](Cc3ccc(C(C)(F)F)cc3)C(=O)N(C)CC(=O)N[C@@H](CCc3ccc(C(F)(F)F)c(OC)c3)C(=O)N2C1 [PP2690] |  | A (a compound having 10 or more and less than 20 is denoted as A) | AA (a compound having 20 or more is denoted as AA) | 8.52
CCO[C@@H]1C[C@H]2C(=O)NC3(CC(C)(C)C3)C(=O)N(C)[C@@H](C3CCCC3)C(=O)N(C)[C@H](C(=O)N(C)C)CC(=O)N(C)[C@@H](CC(C)C)C(=O)N[C@@H]([C@@H](C)CC)C(=O)N(C)CC(=O)N(C)[C@H]3C/C=C\CCN(C3=O)[C@@H](Cc3ccc(C4CC4)cc3)C(=O)N(C)CC(=O)N[C@@H](CCc3ccc(C(F)(F)F)c(OC)c3)C(=O)N2C1 [PP2691] | 8.46 | A (a compound having 10 or more and less than 20 is denoted as A) | AA (a compound having 20 or more is denoted as AA) | 
CCO[C@@H]1C[C@H]2C(=O)NC3(CC(C)(C)C3)C(=O)N(C)[C@@H](C3CCCC3)C(=O)N(C)[C@H](C(=O)N(C)C)CC(=O)N(C)[C@@H](CC(C)C)C(=O)N[C@@H]([C@@H](C)CC)C(=O)N(C)CC(=O)N(C)[C@H]3C/C=C\CCN(C3=O)[C@@H](Cc3ccc(C(C)C)cc3)C(=O)N(C)CC(=O)N[C@@H](CCc3ccc(C(F)(F)F)c(OC)c3)C(=O)N2C1 [PP2692] | 8.11 | A (a compound having 10 or more and less than 20 is denoted as A) | A (a compound having 10 or more and less than 20 is denoted as A) | 
CCO[C@@H]1C[C@H]2C(=O)NC3(CC(C)(C)C3)C(=O)N(C)[C@@H](C3CCCC3)C(=O)N(C)[C@H](C(=O)N(C)C)CC(=O)N(C)[C@@H](CC(C)C)C(=O)N[C@@H]([C@@H](C)CC)C(=O)N(C)CC(=O)N(C)[C@H]3C/C=C\CCN(C3=O)[C@@H](Cc3ccc(OC)cc3)C(=O)N(C)CC(=O)N[C@@H](CCc3ccc(C(F)(F)F)c(OC)c3)C(=O)N2C1 [PP2693] |  | B (a compound having 3 or more and less than 10 is denoted as B) | A (a compound having 10 or more and less than 20 is denoted as A) | 7.98

Reference: patent EP4603105A1, “PHARMACEUTICAL COMPOSITION CONTAINING CYCLIC COMPOUND HAVING SELECTIVE KRAS INHIBITORY EFFECT AGAINST HRAS AND NRAS” (CHUGAI SEIYAKU KABUSHIKI KAISHA, priority 2022, dated 2024)
